Experimental data taken from ChEMBL document CHEMBL2151021, “Novel amide- and sulfonamide-based aromatic ethanolamines: effects of various substituents on the inhibition of acid and neutral ceramidases” (Bioorg Med Chem, 2012).
Calls of active or inactive are those of the source. The rule behind the calls is not given here.

Legend:
[1] = molecular target: Neutral ceramidase (Homo sapiens) (UniProt Q9NR71); experiment: Inhibition of recombinant human nCDase expressed in Sf9 cells using fluorescently-labeled acyl-NBD-C12-ceramide as substrate at 80 uM after 2 hrs by fluorescence assay
[2] = molecular target: T1, Acid ceramidase (Homo sapiens) (UniProt Q13510); experiment: Inhibition of recombinant human aCDase expressed in Sf9 cells using fluorescently-labeled acyl-NBD-C12-ceramide as substrate at 80 uM after 8 hrs by fluorescence assay
T1 sequence (whole entry): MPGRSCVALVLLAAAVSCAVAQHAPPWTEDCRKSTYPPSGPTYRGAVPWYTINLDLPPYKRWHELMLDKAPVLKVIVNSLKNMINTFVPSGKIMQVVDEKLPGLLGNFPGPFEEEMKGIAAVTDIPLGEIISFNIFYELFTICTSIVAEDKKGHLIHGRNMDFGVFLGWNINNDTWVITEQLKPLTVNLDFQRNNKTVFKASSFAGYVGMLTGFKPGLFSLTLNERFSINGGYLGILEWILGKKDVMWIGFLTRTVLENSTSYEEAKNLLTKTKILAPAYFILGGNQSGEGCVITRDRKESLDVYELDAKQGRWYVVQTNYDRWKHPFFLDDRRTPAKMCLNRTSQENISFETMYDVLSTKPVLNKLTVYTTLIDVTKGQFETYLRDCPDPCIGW

Acid ceramidase [3] = molecular target: T2, Acid ceramidase (Homo sapiens, UniProt Q13510); experiment: Inhibition of aCDase expressed in human HL60 cell extract; assay type: cell-free, HL-60
T2 sequence (Q13510 whole entry): T1 sequence (whole entry)

[4] = molecular target: Neutral ceramidase (Homo sapiens) (UniProt Q9NR71); experiment: Activity of recombinant human nCDase expressed in Sf9 cells at 300 uM after 2 hrs by fluorescence assay
Acid ceramidase [5] = molecular target: T2, Acid ceramidase; experiment: Inhibition of aCDase

Neutral ceramidase (Homo sapiens), sequence (Q9NR71 whole entry): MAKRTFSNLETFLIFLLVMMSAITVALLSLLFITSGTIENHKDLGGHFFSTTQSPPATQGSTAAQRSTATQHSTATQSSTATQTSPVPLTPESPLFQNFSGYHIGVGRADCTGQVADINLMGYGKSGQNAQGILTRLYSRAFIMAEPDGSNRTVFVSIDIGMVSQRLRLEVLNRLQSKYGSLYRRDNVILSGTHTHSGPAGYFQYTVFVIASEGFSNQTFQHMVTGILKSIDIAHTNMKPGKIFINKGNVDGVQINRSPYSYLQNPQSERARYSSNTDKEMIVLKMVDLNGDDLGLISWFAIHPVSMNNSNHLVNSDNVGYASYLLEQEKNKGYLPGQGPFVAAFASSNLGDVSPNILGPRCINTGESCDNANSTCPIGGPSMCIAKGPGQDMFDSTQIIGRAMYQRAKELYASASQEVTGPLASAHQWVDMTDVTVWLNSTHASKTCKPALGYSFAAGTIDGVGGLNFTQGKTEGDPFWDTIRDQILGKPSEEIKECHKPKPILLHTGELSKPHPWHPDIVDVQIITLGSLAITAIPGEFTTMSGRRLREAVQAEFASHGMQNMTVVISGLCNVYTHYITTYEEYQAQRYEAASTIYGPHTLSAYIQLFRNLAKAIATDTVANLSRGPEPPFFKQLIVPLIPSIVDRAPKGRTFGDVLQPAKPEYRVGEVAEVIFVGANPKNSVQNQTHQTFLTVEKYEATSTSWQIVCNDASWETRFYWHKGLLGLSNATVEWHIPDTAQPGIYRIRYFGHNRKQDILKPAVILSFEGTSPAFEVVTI

inhibition [1]	inhibition [2]	IC50 (Acid ceramidase [3]) [µM]	Activity [4]	IC50 (Acid ceramidase [5]) [µM]	SMILES
Active	Active				CCCCCCCCCCCCCC(=O)NCC(O)c1cccnc1 (racemic)
Active	Active				CCCCCCCCCCCCCC(=O)NCC(O)c1ccc(C)cc1 (single isomer, unassigned; (-))
Active	inactive				CCCCCCCCCCCCCC(=O)NCC(O)c1cccc(OC)c1 (racemic)
Active	Active		inactive		CCCCCCCCCCCCCC(=O)NCC(O)c1ccc(C)cc1 (racemic)
Active	Active				CCCCCCCCCCCCCC(=O)NCC(O)c1ccc(C)cc1 (stereo in doubt)
	Active				CCCCCCCCCCCCCC(=O)NCC(O)c1cccc(C)c1 (racemic)
	Active				CCCCCCCCCCCCCC(=O)NCC(O)c1ccccc1 (racemic)
	Active				CCCCCCCCCCCCCC(=O)NCC(O)c1ccc(O)cc1 (racemic)
	Active				CCCCCCCCCCCCCC(=O)NCC(O)c1cccc(O)c1 (racemic)

The remaining lines, values behind:

SMILES	inhibition [1]	inhibition [2]	IC50 (Acid ceramidase [3]) [µM]	Activity [4]	IC50 (Acid ceramidase [5]) [µM]
CCCCCCCCCCCCCC(=O)NCC(O)c1ccc(CCC)cc1 (racemic)	inactive	Active			
CCCCCCCCCCCCS(=O)(=O)NCC(O)c1cccnc1 (racemic)	Active	Active			
CCCCCCCCCCCCCC(=O)N[C@H](C)[C@@H](O)c1ccccc1		Active	1		
CCCCCCCCCCCCCC(=O)NCC(O)c1ccncc1 (racemic)	Active	Active			
CCCCCCCCCCCCCC(=O)NCC(O)c1ccc(C(C)(C)C)cc1 (racemic)	inactive	Active			
CCCCCCCCCCCCCC(=O)NCC(O)c1ccc(CC)cc1 (racemic)		Active			
CCCCCCCCCCCCCC(=O)NCC(O)c1ccc(OC)cc1 (racemic)	Active	inactive			
CCCCCCCCCCCCS(=O)(=O)NCC(O)c1ccncc1 (racemic)	Active	Active			
CCCCCCCCCCCCCC(=O)NCC(=O)c1ccc(C)cc1	Active	Active			
CCCCCCCCCCCCS(=O)(=O)N[C@H](C)[C@@H](O)c1ccccc1	Active	Active			
CCCCCCCCCCCCCC(=O)NCC(O)c1ccc(CCCC)cc1 (racemic)		inactive			
CCCCCCCCCCCCCC(=O)NCC(=O)c1cccc(C)c1	Active	Active			
CCCCCCCCCCCCS(=O)(=O)N[C@H](CO)[C@H](O)c1ccc([N+](=O)[O-])cc1		Active			
CCCCCCCCCCCCCC(=O)N[C@H](CO)[C@H](O)c1ccc([N+](=O)[O-])cc1		Active			10
CCCCCCCCCCCCS(=O)(=O)NCC(O)c1ccc(C)cc1 (racemic)	Active	Active		inactive	
CCCCCCCCCCCCS(=O)(=O)NCC(O)c1ccccc1 (racemic)	Active	Active			
